Assay: Anticancer human tumor 997537-175-T-J1-PDC patient-derived colon adenocarcinoma cell line growth inhibition [POLQ]
Settings: 997537-175-T-J1-PDC complex spheroid viability, combination with POLQ inhibitors; for IC50: curve of first compound; for viability, T/C: stronger effect = lower value; active means viability on the fitted dose curve at most 10% of control; inactive means the rest
Outline: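 Three-cell-type spheroids modelling solid tumor plus stroma served as the readout system; POL inhibitors were tested individually and in combination, concentration ranges set by clinical Cmax where known.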
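Further: luminescence signal used as a surrogate for viable cells; spheroids exposed to drugs for seven days before readout.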

Cn1ncnc1[C@H]1c2n[nH]c(=O)c3cc(F)cc(c23)N[C@@H]1c1ccc(F)cc1 + Cc1cccc(N(C)C(=O)C2C(O)CCN2c2nc(C)cc(C(F)(F)F)c2C#N)c1
inactive: viability, T/C (second compound 0.0316 µM, first compound 0.000316 µM) 98% | viability, T/C (second compound 0.0316 µM, first compound 0.001 µM) 109% | viability, T/C (second compound 0.0316 µM, first compound 0.00316 µM) 93.5% | viability, T/C (second compound 0.0316 µM, first compound 0.01 µM) 98.6% | viability, T/C (second compound 0.0316 µM, first compound 0.0316 µM) 110% | viability, T/C (second compound 0.0316 µM, first compound 0.1 µM) 90% | viability, T/C (second compound 0.1 µM, first compound 0.000316 µM) 94.8% | viability, T/C (second compound 0.1 µM, first compound 0.001 µM) 113% | viability, T/C (second compound 0.1 µM, first compound 0.00316 µM) 76.2% | viability, T/C (second compound 0.1 µM, first compound 0.01 µM) 119% | viability, T/C (second compound 0.1 µM, first compound 0.0316 µM) 113% | viability, T/C (second compound 0.1 µM, first compound 0.1 µM) 97.6% | viability, T/C (second compound 0.316 µM, first compound 0.000316 µM) 90.6% | viability, T/C (second compound 0.316 µM, first compound 0.001 µM) 102% | viability, T/C (second compound 0.316 µM, first compound 0.00316 µM) 94.3% | viability, T/C (second compound 0.316 µM, first compound 0.01 µM) 94.6% | viability, T/C (second compound 0.316 µM, first compound 0.0316 µM) 91.1% | viability, T/C (second compound 0.316 µM, first compound 0.1 µM) 91.4% | viability, T/C (second compound 1 µM, first compound 0.000316 µM) 92.6% | viability, T/C (second compound 1 µM, first compound 0.001 µM) 109% | viability, T/C (second compound 1 µM, first compound 0.00316 µM) 96.1% | viability, T/C (second compound 1 µM, first compound 0.01 µM) 100% | viability, T/C (second compound 1 µM, first compound 0.0316 µM) 98.3% | viability, T/C (second compound 1 µM, first compound 0.1 µM) 84.4% | viability, T/C (second compound 3.16 µM, first compound 0.000316 µM) 105% | viability, T/C (second compound 3.16 µM, first compound 0.001 µM) 109% | viability, T/C (second compound 3.16 µM, first compound 0.00316 µM) 95.6% | viability, T/C (second compound 3.16 µM, first compound 0.01 µM) 91.5% | viability, T/C (second compound 3.16 µM, first compound 0.0316 µM) 92.1% | viability, T/C (second compound 3.16 µM, first compound 0.1 µM) 94.7% | viability, T/C (second compound 10 µM, first compound 0.000316 µM) 102% | viability, T/C (second compound 10 µM, first compound 0.001 µM) 93.1% | viability, T/C (second compound 10 µM, first compound 0.00316 µM) 89.8% | viability, T/C (second compound 10 µM, first compound 0.01 µM) 84.4% | viability, T/C (second compound 10 µM, first compound 0.0316 µM) 84.4% | viability, T/C (second compound 10 µM, first compound 0.1 µM) 99.3%
> 100 nM: IC50 (second compound 0.0316 µM) | IC50 (second compound 0.1 µM) | IC50 (second compound 0.316 µM) | IC50 (second compound 1 µM) | IC50 (second compound 3.16 µM) | IC50 (second compound 10 µM)

Source: PubChem BioAssay AID1963825 (Molecular Pharmacology Branch, DTP, NCI, 2024)
